Data on 18 compounds can be found in patent US8906953B2, “Pyrrolidine substitute flavones for the treatment of inflammatory disorders” (Piramal Enterprises Limited, priority 2010, dated 2014).

pIC50: −log10 of the molar value. Where a name gives a salt, the structure may show the parent alone.

For one assay, the system named is TNF-α. The experiment in a line: LPS-induced TNF-α release from hPBMCs (ELISA). It is filed as cell-based. As to conditions: Homo sapiens; LPS-stimulated hPBMCs, 5 hours; read-out: Activity (TNF-α) IC50. Here is the method: Cytokine production by lipopolysaccharides (LPS) in hPBMCs (human peripheral blood mononuclear cells) was measured as in reference, Physiol. Res. 2003, 52, 593-598, the disclosure of which is incorporated by reference for the teaching of the assay. Blood was collected from healthy donors into Potassium EDTA vacutainer tubes (BID vacutainer). The PBMC were isolated using gradient centrifugation in Histopaque-1077 solution (Sigma). Isolated PBMC were suspended in RPMI 1640 (Rosewell Park Memorial Institute) culture medium (Sigma-Aldrich Fine Chemicals, USA) containing 10% fetal bovine serum (FBS) (JRH, USA), 100 U/mL penicillin (Sigma Chemical Co. St Louis, Mo., USA) and 100 μg/mL streptomycin (Sigma Chemical Co. St Louis, Mo.). The cell concentration was adjusted to 1×10^6 cells/mL. The viability as determined by trypan blue dye exclusion was uniform Ly≧98%. The cell suspension (100 μL) was added to the wells of a 96-well culture plate. Following cell plating, 79 μL of the culture medium and 1 μL of various concentrations of test compounds (compounds of formula 1) (final concentration 0.001, 0.003, 0.005, 0.01, 0.025, 0.03, 0.05, 0.1, 0.25, 0.3 and 1 μM) dissolved in DMSO (dimethyl sulfoxide, Sigma, Mo., USA) were added to the cells. The final concentration of DMSO was adjusted to 0.5%. The vehicle (0.5% DMSO) was used as control. […] The plates were incubated for 30 minutes at 37° C. in an atmosphere of 5% CO2. Finally, 20 μL (10 μg/mL) per well of LPS, (Escherchia coli 0127:B8, Sigma Chemical Co., St. Louis, Mo.) was added to the wells of the incubated plates, for a final concentration of 1 μg/mL. The plates were incubated at 37° C. for 5 hours in an atmosphere of 5% CO2. […] Supernatants were harvested and assayed for TNF-α, IL-1β, IL-6 and IL-8 by ELISA as described by the manufacturer. (OptiEIA ELISA sets, BD Biosciences, Pharmingen). The 50% inhibitory concentration (IC50) values were calculated by a nonlinear regression method using GraphPad software (Prism 3.03).
(In general: An ELISA detects its analyte on a solid surface through an enzyme-linked reagent.)
One may read the pIC50 as the IC50 on a negative log10 scale, so that one unit is a factor of ten. With `CN1CC[C@@H](c2c(O)cc(O)c3c(=O)cc(-c4ccc(Cl)cc4Cl)oc23)[C@@H]1CO` [Compound of example 18, (+)-trans-2-(2,4-Dichloro-phenyl)-5,7-dihydroxy-8-(2-hydroxymethyl-1-methyl-pyrrolidin-3-yl)-chromen-4-one hydrochloride], the pIC50 was 6.52.
Still for that read-out and setting: for `CN1CC[C@@H](c2c(O)cc(O)c3c(=O)cc(-c4cccc([N+](=O)[O-])c4Cl)oc23)[C@@H]1CO` [Compound of example 38, (+)-trans-2-(2-Chloro-3-nitro-phenyl)-5,7-dihydroxy-8-(2-hydroxymethyl-1-methyl-pyrrolidin-3-yl)-chromen-4-one hydrochloride] the value was 5.89; for `CN1CC[C@@H](c2c(O)cc(O)c3c(=O)cc(-c4ccc([N+](=O)[O-])cc4Br)oc23)[C@@H]1CO` [Compound of example 16, (+)-trans-2-(2-Bromo-4-nitro-phenyl)-5,7-dihydroxy-8-(2-hydroxymethyl-1-methyl-pyrrolidin-3-yl)-chromen-4-one hydrochloride], 6.52.
Still for that read-out and setting: for `CN1CC[C@@H](c2c(O)cc(O)c3c(=O)cc(-c4cccc(C(F)(F)F)c4Cl)oc23)[C@@H]1CO` [Compound of example 42, (+)-trans-2-(2-Chloro-3-trifluoromethyl-phenyl)-5,7-dihydroxy-8-(2-hydroxymethyl-1-methyl-pyrrolidin-3-yl)-chromen-4-one hydrochloride] the value was 5.62; for `CN1CC[C@@H](c2c(O)cc(O)c3c(=O)cc(-c4cc(F)ccc4Br)oc23)[C@@H]1CO` [Compound of example 9, (+)-trans-2-(2-Bromo-5-fluoro-phenyl)-5,7-dihydroxy-8-(2-hydroxymethyl-1-methyl-pyrrolidin-3-yl)-chromen-4-one hydrochloride], 6.05.
With `CN1CC[C@@H](c2c(O)cc(O)c3c(=O)cc(-c4cccc(Br)c4Cl)oc23)[C@@H]1CO` [Compound of example 30, (+)-trans-2-(3-Bromo-2-chloro-phenyl)-5,7-dihydroxy-8-(2-hydroxymethyl-1-methyl-pyrrolidin-3-yl)-chromen-4-one hydrochloride], the pIC50 was 5.39.
As for `CN1CC[C@@H](c2c(O)cc(O)c3c(=O)cc(-c4ccc([N+](=O)[O-])cc4Cl)oc23)[C@@H]1CO` [Compound of example 5, (+)-trans-2-(2-Chloro-4-nitro-phenyl)-5,7-dihydroxy-8-(2-hydroxymethyl-1-methyl-pyrrolidin-3-yl)-chromen-4-one hydrochloride], the pIC50 was 6.40.
With `CN1CC[C@@H](c2c(O)cc(O)c3c(=O)cc(-c4cccc(Cl)c4Cl)oc23)[C@@H]1CO` [Compound of example 58, (+)-trans-2-(2,3-Dichloro-phenyl)-5,7-dihydroxy-8-(2-hydroxymethyl-1-methyl-pyrrolidin-3-yl)-chromen-4-one hydrochloride], the pIC50 is 5.82.
As to `Cc1cccc(-c2cc(=O)c3c(O)cc(O)c([C@@H]4CCN(C)[C@H]4CO)c3o2)c1Cl` [Compound of example 46, (+)-trans-2-(2-Chloro-3-methyl-phenyl)-5,7-dihydroxy-8-(2-hydroxymethyl-1-methyl-pyrrolidin-3-yl)-chromen-4-one hydrochloride], the pIC50 was 6.30.
With `CN1CC[C@@H](c2c(O)cc(O)c3c(=O)cc(-c4cc(F)ccc4Cl)oc23)[C@@H]1CO` [Compound of example 20, (+)-trans-2-(2-Chloro-5-fluoro-phenyl)-5,7-dihydroxy-8-(2-hydroxymethyl-1-methyl-pyrrolidin-3-yl)-chromen-4-one hydrochloride], the pIC50 was 6.15.
`CN1CC[C@@H](c2c(O)cc(O)c3c(=O)cc(-c4cccc(I)c4Cl)oc23)[C@@H]1CO` [Compound of example 62, (+)-trans-2-(2-Chloro-3-iodo-phenyl)-5,7-dihydroxy-8-(2-hydroxymethyl-1-methyl-pyrrolidin-3-yl)-chromen-4-one hydrochloride]: the pIC50 was 5.89.
In the case of `CC(C)Nc1cccc(-c2cc(=O)c3c(O)cc(O)c([C@@H]4CCN(C)[C@H]4CO)c3o2)c1Cl` [Compound of example 66, (+)-trans-2-(2-Chloro-3-isopropylamino-phenyl)-5,7-dihydroxy-8-(2-hydroxymethyl-1-methyl-pyrrolidin-3-yl)-chromen-4-one hydrochloride], the negative logarithm of the IC50 (pIC50) is 6.05.
As to `CN1CC[C@@H](c2c(O)cc(O)c3c(=O)cc(-c4cccs4)oc23)[C@@H]1CO` [Compound of example 22, (+)-trans-5,7-Dihydroxy-8-(2-hydroxymethyl-1-methyl-pyrrolidin-3-yl)-2-thiophen-2-yl-chromen-4-one hydrochloride], the negative-log IC50 (pIC50) is 5.64.
On the same count and under the same terms, the same measure for `CN1CC[C@@H](c2c(O)cc(O)c3c(=O)cc(-c4cccc([N+](=O)[O-])c4)oc23)[C@@H]1CO` [Compound of example 26, (+)-trans-5,7-dihydroxy-8-(2-hydroxymethyl-1-methyl-pyrrolidin-3-yl)-2-(3-nitrophenyl)-chromen-4-one hydrochloride]: 6.40; for `CN1CC[C@@H](c2c(O)cc(O)c3c(=O)cc(-c4ccc(C#N)cc4Cl)oc23)[C@@H]1CO` [Compound of example 12, (+)-trans-2-(2-Chloro-4-cyano-phenyl)-5,7-dihydroxy-8-(2-hydroxymethyl-1-methyl-pyrrolidin-3-yl)-chromen-4-one hydrochloride]: 5.82.
Take `CN1CC[C@@H](c2c(O)cc(O)c3c(=O)cc(-c4ccccc4Cl)oc23)[C@@H]1CO` [Compound of example 7, (+)-trans-2-(2-Chloro-phenyl)-5,7-dihydroxy-8-(2-hydroxymethyl-1-methyl-pyrrolidin-3-yl)-chromen-4-one hydrochloride]: the pIC50 is 6.70.
As to `CN1CC[C@@H](c2c(O)cc(O)c3c(=O)cc(-c4cccc(Cl)c4)oc23)[C@@H]1CO` [Compound of example 34, (+)-trans-2-(3-Chloro-phenyl)-5,7-dihydroxy-8-(2-hydroxymethyl-1-methyl-pyrrolidin-3-yl)-chromen-4-one hydrochloride], the pIC50 is 5.60.

The subject of another assay is PDE4. The experiment in a line: PDE4 inhibition, cAMP fluorescence assay in salbutamol-stimulated U937 cells. It is filed as cell-based, human. As to conditions: U937 cells, concentration 0.3 μM, salbutamol 1 μM. Here is the method: Culture medium was changed every 2-3 days and always 24 hours before harvest. RPMI medium, FBS and Salbutamol were purchased from Sigma-Aldrich (USA). Rolipram was synthesized in the Medicinal Chemistry Department, Piramal Life Sciences Limited.
Rolipram was used as a standard (0.3, 1 and 3 μM). […] Fluorescence measurements were taken with Polarstar Optima (BMG Labtech-Germany).
Relative fluorescence was calculated using the following formula where: RF=Relative Fluorescence, Fo=fluorescent intensity of the blank or buffer control, F=fluorescence of cAMP or sample: RF=(Fo−F)/Fo
A standard curve was plotted using the RF values of the given standards and the values of cAMP corresponding to the test compounds were determined using the standard plot.
With `COc1ccc(C2CNC(=O)C2)cc1OC1CCCC1` (centres unmarked) [Rolipram, reference compound], the “Relative Fluorescence (RF)” value stood at 1.39.

The assay is the same for the next values; noted with them: U937 cells, concentration 1 μM, salbutamol 1 μM.
With `COc1ccc(C2CNC(=O)C2)cc1OC1CCCC1` (centres unmarked) [Rolipram, reference compound], the “Relative Fluorescence (RF)” value is 1.56.

The same assay, now with this note: U937 cells, concentration 3 μM, salbutamol 1 μM.
In the case of `COc1ccc(C2CNC(=O)C2)cc1OC1CCCC1` (centres unmarked) [Rolipram, reference compound], the “Relative Fluorescence (RF)” value was 1.73.
